Values of other authors in US11890375B2, “Ophthalmic solution of difluprednate” (SUN PHARMA ADVANCED RESEARCH COMPANY LIMITED, priority 2015, dated 2024).

solubility in aqueous vehicle: practically insoluble
SMILES: CCCC(=O)O[C@]1(C(=O)COC(C)=O)CC[C@H]2[C@@H]3C[C@H](F)C4=CC(=O)C=C[C@]4(C)[C@@]3(F)[C@@H](O)C[C@@]21C [Difluprednate]
